Measured values: US8148392B2, “2-indolyl imidazo [4,5-d] phenanthroline derivatives and their use in the treatment of cancer” (Lorus Therapeutics Inc., priority 2005, dated 2012)
Where two headings read alike, the source gives them in different places.

Legend:
[1] = system: human colon carcinoma HT-29 cells; experiment: XTT cell proliferation assay, HT-29; type: cell-based; details: Homo sapiens, HT-29, XTT, read-out: IC50
Method in brief: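 HT-29 cells in McCoy's 5A with 10% FBS, 37° C., 5% CO2, exposed to varying compound concentrations for 6-7 days. Viable cells quantified by XTT reduction to formazan; growth inhibition expressed as IC50 (μM).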

Solubility in water = type: physicochemical; details: HCl salt of compound 2
Protocol: A solution of 0.200 g of compound 2 (0.483 mmol) in DMF was treated with HCL(g) until no more precipitation was observed. The solid was then filtered, washed with dichloromethane and hexanes, dried in vacuum.

[2] = system: panel of 60 human cancer cell lines; experiment: NCI DTP in vitro anticancer screen, panel of 60 human cancer cell lines; type: cell-based; details: average over human tumour cell lines of the NCI panel (FIG. 1); read-out: average GI50 (growth inhibition by 50%)
Protocol: For example, the following methodology, which is currently employed by the NCI, can be used to assess the GI50 of a candidate compound of Formula I in the selected cancer cell lines. Briefly, cell suspensions are diluted (5000-40,000 cells per well) and 100 μL of the diluted cell suspension is added into 96-well microtiter plates. Inoculates are allowed a preincubation period of 24 h at 37° C. for stabilization. Dilutions at twice the intended test concentration of the candidate compound are added at time zero in 100 μL aliquots to the microtiter plate wells. Test compounds are generally evaluated at five 10-fold dilutions. In routine testing, the highest well concentration is usually 10E-4 M, but this may be adjusted depending on the compound being tested. The cells are incubated with the test compound for 48 h in 5% CO2 atmosphere and 100% humidity. The cells are then assayed by using the sulforhodamine B assay (see, for example, Skehan, P., et al. (1990) JNCI, J. Natl. Cancer Inst. 82, 1107-1112; and Chen, S. F., et al. (1990) Proc. Am. Assoc. Cancer Res. 31, A2644) employing a plate reader which can be used to read the optical densities.
Compounds 2 and 3 were evaluated for their antiproliferative effects in a panel of 60 human cancer cell lines as part of the in vitro anticancer screening services provided by the DTP (Developmental Therapeutics Program) of the US National Cancer Institute (NCI).
Analysis of the effects of compounds of Formula I on in vitro and in vivo cell growth inhibition were performed utilizing the methods as described in the preceding Examples. As shown in Example 12, cell growth inhibition by the parental compound 3 was screened by National Cancer Institute 60-cell line assay and leukemia, non-small cell cancer, colon cancer, renal cancer and prostate cancer panels were especially sensitive to compound 3.

IC50 ([1]; 6-7 days, Table 3): 700 nM
IC50 ([1]; as Example 13, Table 7): 1.5 µg/mL
solubility in water (Solubility in water): soluble in water
Compound: Brc1ccc2[nH]cc(-c3nc4c5cccnc5c5ncccc5c4[nH]3)c2c1 [Compound 2]
GI50 [2]: < 2000 nM
